In the assay the test system is NCI-H196 complex spheroid viability. Nature of the assay: Anticancer human tumor NCI-H196 cell line growth inhibition [LSD1].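 For all read-outs here: spheroids exposed to agents for 7 days before readout.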 The conditions noted are these: for viability, T/C: stronger effect = lower value; for IC50: curve of compound. From the text:
Multicellular complex tumor spheroid response to LSD1 Inhibitor Iadademstat in combination with a variety of drugs and investigational agents in selected tumor cell lines
The current study was undertaken to assess response to LSD1 inhibitors in combination with standard-of-care drugs and investigational agents in solid tumor complex spheroid models as well as in the K-562 leukemia. Complex spheroids include a stromal component modeled by human endothelial cells (HUVEC) and fibroblasts modeled by human mesenchymal stem cells (MSCs). The concentration ranges selected for each drug and investigational agent were based upon clinically achievable concentrations if the clinical Cmax of the agent was known.
Compounds. The drugs and investigational agents used in this study are listed on Table 1. All of the agents used, including staurosporine (NSC755774) and gemcitabine (NSC613327), were obtained from the Developmental Therapeutics Program, NCI. FDA-approved anticancer drugs are available from the NCI at http://dtp.nci.nih.gov/branches/dscb/oncology_drugset_explanation.html. Drugs and investigational agents were >95% pure by proton nuclear magnetic resonance (NMR) and liquid chromatography/mass spectrometry (LC/MS). Stock solutions were prepared at 400x in DMSO, stored at -70 degrees C, and diluted in fresh medium prior to their use. The final concentration of DMSO in cell culture wells never exceeded 0.25% (v/v). The FDA-approved anticancer drug set is available from the Developmental Therapeutics Program at https://dtp.cancer.gov/organization/dscb/obtaining/available_plates.htm. All drugs and investigational agents were tested over a range starting from a high concentration at or near the clinical Cmax and decreasing in half-log increments. If the clinical Cmax for an agent had not been determined, the highest concentration tested was 10 microM.
Cell Lines. The patient-derived cancer cell (PDC) lines: 292921-168-R-J2-PDC, K24384-001-R-PDC, and 521955-158-R2-J5-PDC pancreatic carcinomas, 556581-035-R-J1 ovarian carcinoma, 324938-238-R-J1-PDC, 855422-203-R-J1-PDC and 883617-216-R-J1-PDC urothelial bladder carcinomas, 743489-274-T-PDC renal cell carcinoma, 138582-R-J1 Merkel cell tumor, K60290-347-R-J1 and K57222-313-R-J1-PDC glioblastomas, 653999-131-R-J2-PDC, LG0703-F948-PDC, and 349418-098-R-PDC non-small cell lung carcinomas, 885512-296-R-J2-PDC, 171881-019-R-J1-PDC breast carcinomas and 186277-243-T-J2-PDC and 233499-124-R-J2-PDC colon carcinomas were obtained from the NCI Patient-Derived Models Repository (PDMR, https://pdmr.cancer.gov). The established cell lines NCI/ADR-RES (RRID:CVCL_14520 and OVCAR-5 (RRID:CVCL_1628) ovarian carcinomas, 786-O (RRID:CVCL_1051) and A498 (RRID:CVCL_A498) renal cell carcinoma, NCI-H211 (ATCC, cat. CRL-5824; RRID:CVCL_1529), NCI-H196 (ATCC, cat. CRL-5823, RRID:CVCL_1509), SW 1271 (ATCC, cat. CRL-2177, RRID:CVCL_1716) and NCI-H1876 (ATCC, cat. CRL-5902, RRID:CVCL_1503) small cell lung carcinomas, MDA-MB-231 (RRID:CVCL_0062) and MDA-MB-468 (RRID:CVCL_0419)breast carcinomas (10-12). Pooled donor human umbilical vein endothelial cells (HUVEC, Lonza, cat. CC-2519) and human mesenchymal stem cells (hMSC, Lonza, cat. PT-2501) were purchased from Lonza (Walkersville, MD).
Cell Culture. All cells were maintained in an incubator at 37 degrees C and 5% CO2 with 95% humidity. The PDC lines were cultured according to standard operating procedures established by the NCI PDMR (https://pdmr.cancer.gov). Briefly all PDCs were thawed and cultured in Matrigel-coated flasks prepared with a working solution of 1X Ham's F-12 nutrient mix, without supplementation (Invitrogen, Waltham, MA, cat. 11765054), 100 U/mL penicillin-streptomycin (Invitrogen, cat. 15140122), and 2.5% Matrigel (Corning Inc., Corning, NY, cat. 354248) for the first three passages. […]

Several values for one entry are separate records, joined by “and”; a condition that tells them apart may be missing. Identical values can stand only once.

The viability, T/C is the ratio of treated to control. For orientation: IC50 means the concentration needed to halve the response being measured. For the compound `CC(C)CC(NC(=O)C(Cc1ccccc1)NC(=O)c1cnccn1)B(O)O` (stereo not drawn), the IC50 was 0.531 nM and 0.44 nM. Further, the viability, T/C (compound 0.000316 µM) was 86.3% and 68.7%. The viability, T/C (compound 0.001 µM) is 5.76% and 3.52%. Moreover, where the note is “compound 0.00316 µM”, the viability, T/C is 4.42% and 2.33%. Further, the viability, T/C (compound 0.01 µM) is 2.79% and 2.47%. Moreover, the viability, T/C (compound 0.0316 µM) was 2.25% and 1.91%. Besides, the viability, T/C (compound 0.1 µM) is 0.92% and 0.81%.

As for `CC(C)CC(NC(=O)CNC(=O)c1cc(Cl)ccc1Cl)B1OC(=O)CC(CC(=O)O)(C(=O)O)O1` (stereo not drawn), the IC50 was 22 nM and 12.6 nM. Besides, the viability, T/C (compound 0.000316 µM) was 108% and 104%. Also, under “compound 0.001 µM”, the viability, T/C was 113% and 107%. Besides, where the note is “compound 0.00316 µM”, the viability, T/C was 103% and 92%. For the same compound, the viability, T/C (compound 0.01 µM) is 83.3% and 57.1%. The viability, T/C (compound 0.0316 µM) was 34.6% and 20.3%. In addition, the viability, T/C (compound 0.1 µM) was 6.61% and 4.84%.

As to `CC1(C)CCC(CN2CCN(c3ccc(C(=O)NS(=O)(=O)c4ccc(NCC5CCOCC5)c([N+](=O)[O-])c4)c(Oc4cnc5[nH]ccc5c4)c3)CC2)=C(c2ccc(Cl)cc2)C1`, the IC50 is 5620 nM and 6290 nM. Also, under “compound 0.0316 µM”, the viability, T/C was 99.4% and 101%. Besides, the viability, T/C (compound 0.1 µM) was 104% and 99.2%. Further, where the note is “compound 0.316 µM”, the viability, T/C is 94.9% and 98.7%. The viability, T/C (compound 1 µM) is 103% and 93.7%. Besides, the viability, T/C (compound 3.16 µM) was 86.4% and 94.3%. Also, the viability, T/C (compound 10 µM) was 13% and 20.1%.

As to `CC1COCCN1c1cc(-c2ccnn2C)c2ccnc(-c3ccn[nH]3)c2n1` (stereo not drawn), the 50% inhibitory concentration (IC50) was 724 nM and 543 nM. For the setting “compound 0.00316 µM”, the viability, T/C is 77.7% and 75.2%. For the same compound, under “compound 0.01 µM”, the viability, T/C is 77.9% and 70%. Further, under “compound 0.0316 µM”, the viability, T/C is 64.6% and 70%. For the same compound, the viability, T/C (compound 0.1 µM) was 65.4% and 57.1%. Moreover, under “compound 0.316 µM”, the viability, T/C was 55.8% and 53.1%. For the same compound, where the note is “compound 1 µM”, the viability, T/C was 47.5% and 46.9%.

Turning to `CCN(c1cc(-c2ccc(CN3CCOCC3)cc2)cc(C(=O)NCc2c(C)cc(C)[nH]c2=O)c1C)C1CCOCC1`, the IC50 was greater than 3000 nM. In addition, the viability, T/C (compound 0.00949 µM) was 95.5% and 97.5%. Further, the viability, T/C (compound 0.03 µM) was 103% and 95.3%. For the same compound, the viability, T/C (compound 0.0949 µM) is 92.9% and 110%. Moreover, the viability, T/C (compound 0.3 µM) was 93.9% and 107%. Besides, the viability, T/C (compound 0.949 µM) is 101% and 113%. For the same compound, the viability, T/C (compound 3 µM) is 108% and 100%.

Consider `CC[C@@]1(O)C(=O)OCc2c1cc1n(c2=O)Cc2cc3c(CN(C)C)c(O)ccc3nc2-1`, for which the IC50 is greater than 100 nM. Besides, under “compound 0.000316 µM”, the viability, T/C was 98.3% and 97.6%. Under “compound 0.001 µM”, the viability, T/C was 99% and 93.1%. For the same compound, the viability, T/C (compound 0.00316 µM) is 95.1% and 99.2%. Where the note is “compound 0.01 µM”, the viability, T/C is 109% and 97.3%. For the same compound, the viability, T/C (compound 0.0316 µM) was 110% and 115%. Under “compound 0.1 µM”, the viability, T/C is 106% and 102%.

As to `CCc1c2c(nc3ccc(O)cc13)-c1cc3c(c(=O)n1C2)COC(=O)[C@]3(O)CC`, the IC50 is 10.1 nM and 8.88 nM. For the same compound, the viability, T/C (compound 0.000949 µM) was 99.5% and 104%. For the same compound, under “compound 0.003 µM”, the viability, T/C is 103% and 96.6%. Further, under “compound 0.00949 µM”, the viability, T/C was 52.9% and 47.5%. Besides, the viability, T/C (compound 0.03 µM) was 2.96% and 3.28%. Moreover, the viability, T/C (compound 0.0949 µM) is 1.29% and 0.86%. In addition, the viability, T/C (compound 0.3 µM) is 1.52% and 0.88%.

As to `COc1cc(C2c3cc4c(cc3C(OC3OC5COC(C)OC5C(O)C3O)C3COC(=O)C23)OCO4)cc(OC)c1O` (stereo not drawn), the 50% inhibitory concentration (IC50) is greater than 3000 nM. The viability, T/C (compound 0.00949 µM) is 98.3% and 98.5%. Besides, under “compound 0.03 µM”, the viability, T/C is 99.7% and 101%. Moreover, the viability, T/C (compound 0.0949 µM) was 98.6% and 112%. In addition, the viability, T/C (compound 0.3 µM) was 108% and 112%. The viability, T/C (compound 0.949 µM) was 90.5% and 81.5%. Moreover, the viability, T/C (compound 3 µM) is 65.7% and 59.9%.

Regarding `COc1cc(Nc2ncc3c(n2)-c2ccc(Cl)cc2C(c2c(F)cccc2OC)=NC3)ccc1C(=O)O`, the IC50 was greater than 1000 nM. Also, the viability, T/C (compound 0.00316 µM) is 96.3% and 91.4%. The viability, T/C (compound 0.01 µM) was 103% and 105%. For the same compound, the viability, T/C (compound 0.0316 µM) is 114% and 99.4%. The viability, T/C (compound 0.1 µM) was 119% and 109%. In addition, the viability, T/C (compound 0.316 µM) was 132% and 120%. Under “compound 1 µM”, the viability, T/C was 118% and 121%.

Values taken from PubChem BioAssay AID1918958 (Molecular Pharmacology Branch, DTP, NCI, 2023).
